From US20070104787A1, “Carboxyalkyl cellulose esters for sustained delivery of pharmaceutically active substances” (priority 2005, published 2007)

Tests used:
[1] = USP #2 paddle dissolution test: release of active in pH 1.2 or pH 6.8 buffer; format: physicochemical; details: for total release of active (in words): CMCAB tablets (Formulations E17, E18, E20), pH 1.2
Method: The dissolution tests were done using a USP #2 calibrated apparatus Varian VK 7000 with Teflon paddles. The pills were added to 900 ml of USP 1.2 pH buffer or to 900 ml of USP pH 6.8 buffer. The buffer solutions had each been degassed at 41° C. through a 0.45 micron hydrophilic polypropylene filter and held under vacuum for an additional 5 minutes. After the solutions were added to the dissolution vessels, the solutions were held at 37.3° C. in the water bath for 30 minutes to achieve constant temperature, prior to the addition of the tablets. The tablets were weighted down with a Varian 3-pronged capsule weight. At the beginning of each run, the tablets were allowed to sink to the bottom of the 1000 ml vessel, the stirrers were turned on at 50 rpm and samples taken as a function of time, using polypropylene syringes. The samples were filtered through 0.45 micron filters and immediately analyzed for the amount of aspirin in the solution. The wavelength for measuring the amount of aspirin (salicylic acid acetate) at pH 1.2 was 279 nm, which was the wavelength for equivalent molar absorptivities for both salicylic acid and aspirin using a Varian UV-VIS Spectrophotometer and quartz absorption cells. Similarly, the wavelength used to measure the concentration of the aspirin in pH 6.8 buffer was 267 nm, which was the wavelength where the molar absorptivity for salicylic acid and aspirin are equivalent at pH 6.8. This allowed accurate measurement of the release rate profile without having to worry about the degradation of the aspirin to salicylic acid with time. Each set of experiments had appropriate standards for reference for quantitative analysis. In the cases where the samples contained Vitamin E-TPGS, HPLC with UV detection was done to analyze for aspirin and salicylic acid.
6.0069 g CMCAB was mixed with 1.4937 g Fexofenadine HCl and 10.7693 g ethanol. The clear solution was allowed to dry into a clear film. The amorphous compatible film was then ground in a SPEX™ liquid nitrogen Freezer Mill for 6 minutes at 75% maximum speed. Torpac Inc. #2 Gelatin capsules were filled with the powdered polymer blend and tested using a Varian VK7000 USP II dissolution device at pH 1.2 and pH 6.8. The dissolution results are shown in FIG. 24, which is a plot of fexofenadine released from CMCAB solid dispersion (y-axis) versus time (minutes, x-axis) for Formulation E24 in Example 4. […] By varying the way the carboxyalkyl cellulose ester is mixed with the active, the rate of release can be varied so that one can achieve near zero order release of the active over a long period of time.

[2] = cited from earlier work

pH dependence of release ([1]; CMCAB tablet (Formulation E22), pH 1.2 versus pH 6.8)	duration of near zero order release ([1]; CMCAB tablet at 25% active (Formulation E22))	total release of active (in words) [1]	SMILES	water solubility [2]
little pH dependence	up to 500 minutes	–	OC(Cn1cncn1)(Cn1cncn1)c1ccc(F)cc1F [fluconazole]	highly water soluble
–	–	low total release	CC(C)Cc1ccc(C(C)C(=O)O)cc1 (stereo not drawn) [ibuprofen]	–
–	–	low total release	Cc1nnc(NS(=O)(=O)c2ccc(N)cc2)s1 [sulfamethizole]	–
–	–	low total release	COc1cc(Cc2cnc(N)nc2N)cc(OC)c1OC [trimethoprim]	–
